Test results published in US8318638B2, “Plant activator” (Shiseido Company, Ltd., priority 1999, dated 2012).

How the values were obtained:
lettuce = experiment: Growth promotion effect on lettuce; assay type: in vivo; conditions: 50 μM aqueous solution sprayed five consecutive days
Method: One month after seeding of lettuce, spraying of a 50 μM specific ketol fatty acid (I) aqueous solution was carried out for five consecutive days, and growth of the lettuce (plant width) was observed.

Eustoma russellianum = experiment: Growth promotion effect on Eustoma russellianum; assay type: in vivo
Primula melacoides = experiment: Growth promotion effect on Primula melacoides; assay type: in vivo; conditions: 80 μM aqueous solution, five consecutive days then once a week for six weeks; six-and-a-half months after last spraying; FIG. 9
Method: One-and-a-half months after seeding of Primula melacoides, spraying of an 80 μm specific ketol fatty acid (I) aqueous solution was carried out for five consecutive days. Furthermore, four months after the start of the test, spraying of an 80 μM specific ketol fatty acid (I) aqueous solution was carried out for six weeks (once a week). Bolting was not observed at a nutrition growth stage of the Primula melacoides. Six-and-a-half months after the last spraying, the plant width and the leave size were measured.

Begonia sempaflorens = experiment: Growth promotion effect on Begonia sempaflorens; assay type: in vivo; conditions: 80 μm aqueous solution, five consecutive days then once a week for six weeks; four months after last spraying; FIG. 10
Method: Two weeks after seeding of Begonia sempaflorens, spraying of an 80 μm specific ketol fatty acid (I) aqueous solution was carried out for five consecutive days. Furthermore, three months after the start of the test, spraying of an 80 μm specific ketol fatty acid (I) aqueous solution was carried out for six weeks (once a week). Four months after the last spraying, the leave size was measured.

[1] = test system: Oryza sativa L. (variety: koshihikari); experiment: Growth controlling effect on Oryza sativa L. seedlings (seed immersion); assay type: in vivo
Method: (1) Good-quality seeds of Oryza sativa L. (variety: koshihikari) (200 g) were immersed in water (800 mL) at 10° C. for 13 days. Thereafter, the seeds were equally divided into four groups, and the respective seed groups were immersed in specific ketol fatty acid (I) aqueous solutions (concentration: 0 μM, 1 μM, 10 μM, and 100 μM) (200 mL) at 30° C. for 1.5 days. The immersed seeds were planted in a four-divided seedbed tray, and grown under no light irradiation at 27° C. for three days. Subsequently, the grown seedlings were exposed to the typical outside environment. Six days after the exposure, 18 seedlings were randomly selected from each group, and the heights of the seedlings were measured, and then averaged. […] Subsequently, in consideration of practical handling of seedlings of Oryza sativa L., the effect of application of specific ketol fatty acid (I) was evaluated. […] In order to perform this evaluation, three weeks after the aforementioned light irradiation treatment, seedlings of each group were randomly selected, and the average of the proportions of the second leaves and third leaves was obtained. […] However, unlike the case of promotion of growth of the seedlings, the optimum concentration of the specific ketol fatty acid (I) aqueous solution is 1 μM.

Oryza sativa L. = experiment: Growth controlling effect on Oryza sativa L. in paddy field (spraying); assay type: in vivo
Method: (2) Seedlings of Oryza sativa L. were grown in a seedbed in a manner similar to that described in (1), except that the seedlings were immersed in ion-exchange water at 10° C. for 15 days, without application of specific ketol fatty acid (I) described above in (1). Subsequently, the resultant seedlings which had been divided into five groups, each group containing three subgroups (only control group containing four subgroups) and each subgroup containing 16 seedlings, were exposed to the outside environment. Immediately after this exposure, spraying of specific ketol fatty acid (I) was carried out (0 ppm for a first group (control group), 25 ppm for second and third groups, 50 ppm for fourth and fifth groups). Thirty days after the spraying, the seedlings were planted in a paddy field, and additional spraying of specific ketol fatty acid (I) (25 ppm) was carried out for two groups; i.e., the third group (total amount of the acid (I): 25+25 ppm) and the fifth group (total amount of the acid (I): 50+25 ppm). Subsequently, the seedlings of the Oryza sativa L. were grown in the paddy field by means of a customary method. Forty-one days after the above planting, in each group, the plant height and the number of stems per plant (at a section at which four seedlings were planted) were measured, and then averaged.

Seeds of lettuce = experiment: Dry stress suppressive effect on lettuce seeds (germination); assay type: in vivo; conditions: for Number of germinated seeds: 50 seeds per group; for Germination rate (%: n = 50): seeds immersed 72 hours, dried in air 48 hours
Method: Seeds of lettuce (50 seeds per test group) were immersed in specific ketol fatty acid (I) aqueous solutions [concentration: 2 μM, 10 μM, 20 μM, and 0 μM (control)] for 72 hours, and dried in air for 48 hours. The resultant seeds were disposed on water-containing filter paper, and allowed to germinate. In each test group, germination rate—percentage (%) of germinated seeds with respect to the entirety of seeds—was obtained.

[2] = test system: hyphae of P. citrinopileatus; experiment: Effect of proliferating hyphae of P. citrinopileatus Sing.; assay type: cell-based, Pleurotus citrinopileatus Sing.; conditions: 10 μM, 30 μM, 100 μm in potato-dextrose-agar medium; 37° C.; FIG. 15
Method: A potato-dextrose-agar culture medium was sterilized by use of an autoclave. After the medium was cooled to a temperature at which the agar was not solidified, a 1 mM specific ketol fatty acid (I) aqueous solution which had been sterilized by use of a membrane filter was added to the medium, to thereby prepare four culture media; i.e., a culture medium containing 0 μM of the fatty acid (I), a culture medium containing 10 μM of the fatty acid (I), a culture medium containing 30 μM of the fatty acid (I), and a culture medium containing 100 μm of the fatty acid (I). Each of the culture media was solidified in a 10-cm plate, and then hyphae of P. citrinopileatus (one platinum loop) was inoculated on the medium. Subsequently, the hyphae were cultured at 37° C., and proliferation of the hyphae was observed (10 plates for each group). Proliferation of the hyphae was evaluated on the basis of the average of the diameters of the proliferated hyphae on the plate.

[3] = fifth group: 50+25 ppm sprayed, 41 days after planting
[4] = fourth group: 50 ppm sprayed, 41 days after planting
[5] = second group: 25 ppm sprayed, 41 days after planting
[6] = third group: 25+25 ppm sprayed, 41 days after planting

## CC/C=C\C/C=C\CC(=O)C(O)CCCCCCCC(=O)O (stereo not shown) [specific ketol fatty acid (I), 9-hydroxy-10-oxo-12(Z),15(Z)-octadecadienoic acid]
lettuce
  duration of growth promotion effect: maintained 48 days after the start of the test
lettuce; one month after seeding, FIG. 2
  growth of the lettuce (plant width): exerts the effect of promoting growth of the lettuce
Eustoma russellianum; 50 μm aqueous solution sprayed to rosette leaves five consecutive days, three months after seeding
  bolting: bolting was observed immediately after the spraying
Eustoma russellianum; 50 μm aqueous solution, observed for 48 days
  plant width: did not increase as had been expected
Eustoma russellianum; 50 μm aqueous solution, observed for 48 days, FIG. 4
  plant height: continued to increase 48 days after observation of growth
Primula melacoides
  leave size: increased
  plant width: increased
Begonia sempaflorens
  leave size: growth of the leaves is promoted
[1]; seed immersion, FIG. 13
  optimum concentration of the aqueous solution for controlling growth of the third leaves: 1 µM
[1]; seeds immersed in 1 μM, 10 μM, 100 μM solutions at 30° C. for 1.5 days, six days after exposure, 18 seedlings, FIG. 12
  heights of the seedlings (degree of growth promotion): commensurate with the application amount
[1]; seeds immersed in 1, 10, 100 μM solutions, three weeks after light irradiation treatment, FIG. 13
  growth of the third leaves (proportions of second and third leaves): exerts the effect of controlling growth of the third leaves
Oryza sativa L.; 25 to 50+25 ppm, 41 days after planting
  plant height, difference between groups incl. control: significant difference was not observed
Oryza sativa L.; each of the second through fifth groups
  number of stems per plant greater than control group: about 10%
Oryza sativa L.; [3]
  number of stems per plant: 37
  plant height: 58 cm
Oryza sativa L.; [4]
  number of stems per plant: 38
  plant height: 58 cm
Oryza sativa L.; [5]
  number of stems per plant: 38
  plant height: 57 cm
Oryza sativa L.; [6]
  number of stems per plant: 39
  plant height: 57 cm
Seeds of lettuce; 2 μM
  Number of germinated seeds: 43
  Germination rate (%: n = 50): 86%
Seeds of lettuce; 10 μM
  Number of germinated seeds: 49
  Germination rate (%: n = 50): 98%
Seeds of lettuce; 20 μM
  Number of germinated seeds: 45
  Germination rate (%: n = 50): 90%
[2]
  degree of proliferation of the hyphae (average diameter on plate): dependent on the concentration
